Measurements taken from the supplement of paper PMC10307832.

Assays:
Assay in all cases: relative viability (nuclei count vs DMSO), 5 days (fraction); higher = more cells survive
Wnt-C59 + OSI-027 = compound: CC1=NC=CC(=C1)C2=CC=C(C=C2)CC(=O)NC3=CC=C(C=C3)C4=CN=CC=C4 [Wnt-C59] + COc1cccc2cc(-c3nc([C@H]4CC[C@H](C(=O)O)CC4)n4ncnc(N)c34)[nH]c12 [OSI-027] (partner 0.5 µM)
In short: (§1)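 Nuclei were stained with Hoechst during a one-step fixation (final 0.05% Triton X-100, 1% formaldehyde, 1 ug/ml Hoechst) carried out 5 days after dosing, then counted on 4× images. The cells, lung cancer lines in 1536-well plates, had been dosed by pin tool the day after seeding with one drug alone or a fixed anchor-drug dose plus five library-drug doses (not always all listed) in √10 steps. Relative viability is the nuclei count in treated wells divided by that in vehicle wells, and each value is the median of duplicate plates.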

Wnt-C59 + Linsitinib = compound: CC1=NC=CC(=C1)C2=CC=C(C=C2)CC(=O)NC3=CC=C(C=C3)C4=CN=CC=C4 [Wnt-C59] + C[C@]1(O)C[C@@H](c2nc(-c3ccc4ccc(-c5ccccc5)nc4c3)c3c(N)nccn32)C1 [Linsitinib] (partner 1 µM)
In short: as §1

Lapatinib + Palbociclib = compound: CS(=O)(=O)CCNCc1ccc(-c2ccc3ncnc(Nc4ccc(OCc5cccc(F)c5)c(Cl)c4)c3c2)o1 [Lapatinib] + CC(=O)c1c(C)c2cnc(Nc3ccc(N4CCNCC4)cn3)nc2n(C2CCCC2)c1=O [Palbociclib] (partner 0.5 µM)
In short: as §1

Lapatinib + Linsitinib = compound: CS(=O)(=O)CCNCc1ccc(-c2ccc3ncnc(Nc4ccc(OCc5cccc(F)c5)c(Cl)c4)c3c2)o1 [Lapatinib] + C[C@]1(O)C[C@@H](c2nc(-c3ccc4ccc(-c5ccccc5)nc4c3)c3c(N)nccn32)C1 [Linsitinib] (partner 1 µM)
In short: as §1

| Cell Line | relative viability (Wnt-C59 + OSI-027; first compound 0.001 µM) | relative viability (Wnt-C59 + OSI-027; first compound 0.01 µM) | relative viability (Wnt-C59 + OSI-027; first compound 0.03162 µM) | relative viability (Wnt-C59 + OSI-027; first compound 0.1 µM) | relative viability (Wnt-C59 + Linsitinib; first compound 0.001 µM) | relative viability (Wnt-C59 + Linsitinib; first compound 0.01 µM) | relative viability (Wnt-C59 + Linsitinib; first compound 0.03162 µM) | relative viability (Wnt-C59 + Linsitinib; first compound 0.1 µM) | relative viability (Lapatinib + Palbociclib; first compound 0.02 µM) | relative viability (Lapatinib + Palbociclib; first compound 0.06325 µM) | relative viability (Lapatinib + Palbociclib; first compound 0.2 µM) | relative viability (Lapatinib + Palbociclib; first compound 0.6325 µM) | relative viability (Lapatinib + Palbociclib; first compound 2 µM) | relative viability (Lapatinib + Linsitinib; first compound 0.02 µM) | relative viability (Lapatinib + Linsitinib; first compound 0.06325 µM) | relative viability (Lapatinib + Linsitinib; first compound 0.2 µM) | relative viability (Lapatinib + Linsitinib; first compound 0.6325 µM) | relative viability (Lapatinib + Linsitinib; first compound 2 µM) |
| --- | --- | --- | --- | --- | --- | --- | --- | --- | --- | --- | --- | --- | --- | --- | --- | --- | --- | --- |
| NCI-H2085 | 0.837 | 0.569 | 0.747 | 0.77 | 0.971 | 0.867 | 1.02 | 0.947 | 0.485 | 0.462 | 0.474 | 0.445 | 0.338 | 0.919 | 0.89 | 0.811 | 0.813 | 0.62 |
| NCI-H2087 | 0.53 | 0.476 | 0.572 | 0.592 | 1.04 | 0.956 | 0.958 | 0.858 | 0.238 | 0.161 | 0.177 | 0.251 | 0.246 | 0.97 | 0.887 | 1.01 | 1.06 | 0.818 |
| NCI-H2126 | 0.718 | 0.655 | 0.7 | 0.682 | 0.755 | 0.7 | 0.723 | 0.701 | 0.38 | 0.349 | 0.346 | 0.348 | 0.319 |  | 0.658 | 0.685 | 0.645 | 0.593 |
| NCI-H2228 | 0.665 | 0.484 | 0.596 | 0.548 | 0.606 | 0.95 | 0.77 | 0.878 | 0.395 | 0.606 | 0.744 | 0.739 | 0.54 | 0.662 | 0.51 | 0.721 | 0.881 | 0.891 |
| NCI-H2347 | 0.365 | 0.474 | 0.51 | 0.457 | 0.987 | 0.889 | 0.98 | 0.987 | 0.385 | 0.45 | 0.456 | 0.378 | 0.386 | 0.963 | 0.97 | 1.01 | 0.929 | 0.926 |
| NCI-H2405 | 0.633 | 0.554 | 0.579 | 0.476 | 1.03 |  | 0.887 | 0.875 |  | 0.452 |  | 0.505 | 0.518 |  | 0.805 | 0.918 | 0.973 | 0.768 |
| NCI-H3122 | 1.02 | 0.978 | 1.32 | 0.891 | 1.04 | 0.931 | 1.02 | 1.02 | 0.185 | 0.176 | 0.17 | 0.198 | 0.236 | 0.996 | 0.954 | 0.996 | 1.04 | 0.999 |
| PC-3 [JPC-3] | 0.83 | 0.738 | 0.83 | 0.773 | 0.964 | 0.942 | 1.01 | 0.961 |  | 0.589 |  | 0.546 | 0.444 |  | 1.01 | 0.993 | 0.994 | 0.873 |
